Source: patent US20090252708A1, “Biotherapeutic compositions comprising probiotic escherichia coli and uses thereof” (Biobalance LLC, priority 2006, published 2009)

Assays:
colonic MPO = experiment: Colonic myeloperoxidase (TMB method) in DSS colitis; type: in vivo, C57BL/6 mice; conditions: day 13, M-17 5×10^9 CFU/ml, metronidazole 40 mg/kg
Protocol: (§1) On day 13 of the study, animals were euthanized by exposure to carbon dioxide. The colon was rapidly removed and the total colon length was determined to the nearest 0.1 cm. Typically, a 2.5 cm segment of distal colon was fixed in 10% buffered formalin, for a subsequent histological evaluation (see below). The adjacent 2.5 cm segment of colon was weighed and then frozen in liquid nitrogen. This segment of colon was used for the evaluation of colonic MPO, as well as colonic cytokine levels.
The 2.5 segment of colon was homogenized for about 30 seconds in 0.5 ml of molecular biology grade distilled water, using a hand-held tissue homogenizer (TissueMiser) from Fisher Scientific (Pittsburgh, Pa.). The homogenate was then centrifuged at 10,000 RPM at 4° C. for 15 minutes. The pellet was resuspended in hexadecyltrimethylammonium bromide (HTAB) buffer (pH 6.0), for the measurement of colonic MPO. MPO was assayed by the tetramethylbenzidine (TMB) method (Fitzpatrick, 2000).

[1] = system: individual isolates of the aerobic and facultative gram positive and gram negative flora; experiment: Metronidazole ex vivo on fecal isolates; type: cell-based; conditions: ex vivo at 50 μg/ml
IFN-γ = experiment: Colonic cytokine ELISA in DSS colitis: IFN-γ; type: in vivo, C57BL/6 mice; conditions: day 13, M-17 5×10^9 CFU/ml, metronidazole 40 mg/kg
Protocol: as §1
(§2) The supernatant fraction from the colonic homogenate (see above) was aliquoted into appropriate test tubes and frozen at −70° C. Subsequently, the supernatants were used to measure relevant pro-inflammatory cytokines [e.g., IFN-γ, IL-1β, TNF-α, IL-12] using commercially available mouse ELISA kits (Fitzpatrick 2000). The data was typically expressed as pg/2.5 cm of colon.

IL-12 = experiment: Colonic cytokine ELISA in DSS colitis: IL-12; type: in vivo, C57BL/6 mice; conditions: day 13, M-17 5×10^9 CFU/ml, metronidazole 40 mg/kg
Protocol: as §1, §2

E. coli ATCC 202226 = experiment: Kirby-Bauer disc diffusion; type: cell-based, Escherichia coli; conditions: 50 μg metronidazole paper disc, Mueller-Hinton Agar, overnight
Protocol: The Kirby-Bauer disc diffusion method was used to determine the relative sensitivity of E. coli ATCC 202226 to metronidazole (Bauer, 1966). Five colonies of E. coli ATCC 202226 were picked from trypticase soy agar (TSA) using a sterile inoculation loop and suspended in trypticase soy broth (TSB). The TSB culture was grown for 6 hours at 37° C./200 rpm. This culture was diluted in TSB to match a 0.5 McFarland turbidity standard prior to saturating a sterile cotton swab and streaking the culture onto the surface of a Mueller-Hinton Agar plate. After allowing the surface of the plate to dry, a 50 μg metronidazole paper disc (Oxoid) was placed on the lawn. The plate was incubated overnight and the zone of inhibition was recorded.

IL-6 = experiment: Colonic cytokine ELISA in DSS colitis: IL-6; type: in vivo, C57BL/6 mice; conditions: day 13, M-17 5×10^9 CFU/ml, metronidazole 40 mg/kg
Protocol: as §1, §2

[2] = system: distal colon histological damage; experiment: Colonic histology score in DSS colitis; type: in vivo, C57BL/6 mice; conditions: day 13, M-17 5×10^9 CFU/ml, metronidazole 40 mg/kg
Protocol: Distal colonic specimens were processed by standard methods and embedded in paraffin by the Histology core facility at the Penn State University College of Medicine. Microscope slides were coded. Using coded hematoxylin-eosin H&E slides (1 slide per mouse) from the distal colon, colonic histology scores were determined from six different areas on the slide (Williams, 2001; Krieglstein, 2001). A mean total histology score value was calculated for each mouse.
Total Histology Scores were determined by multiplying the percent involvement for each of the 3 different histological features by the area of involvement. Using this scoring system, the minimal score=0 and the maximal score=40. The percent involvement was determined with a 25 mm ocular grid attached to an Olympus CH light microscope. The histological evaluation was performed at a 400× magnification.

DSS-induced colitis = experiment: Acute DSS-induced colitis in mice: DAI, body weight, stools, colon length and weight, tolerability; type: in vivo, C57BL/6 mice; conditions: for DAI (table title: DAT Time Course Data): DSS days 7-13; for mice with weight loss: weight loss defined as >1%
Protocol: Mice were dosed once daily for a period of 13 days by oro-gastric gavage with a 20 gauge, one-inch long needle (Popper & Sons, New Hyde Park, N.Y.). Dosages comprised either 40 mg/kg dose of metronidazole or 5×10^9 CFU/ml probiotic solution. A 0.6% saline solution was administered as a control.
Disease Activity Indices (DAIs) were determined either daily or on alternate days, by evaluation of stool consistency and occult blood in the stool and weight loss on a standardized severity scale, as shown in Table 1 (Murthy, 1993).
Disease Activity Index (DAI) Calculation: The individual scores for weight loss, stool consistency, and occult blood/bleeding are determined, and divided by 3 to determine a mean DAI for the mouse. For example, if an animal lost 12% of the initial body weight [score=3], had evidence of diarrhea [score=4], and evidence of gross rectal bleeding [score=4], the mean DAI would be 3±4±4=11/3=3.7
In Example 3, weight loss was not very evident in the DSS-treated mice. Therefore, a modified DAI calculation was used. The modfied DAIs were calculated similarly to the DAIs of Table 1, but only the stool consistency and occult blood components were used for this determination.
Colitis was then induced by providing the mice with a solution of 2% DSS (w/v) dissolved in the filtered water for days 7 to 13 of the study. One group of mice received water without DSS. Water consumption and body weight were recorded throughout the study.
as §1
Control mice received 0.6% saline.

IL-1β = experiment: Colonic cytokine ELISA in DSS colitis: IL-1β; type: in vivo, C57BL/6 mice; conditions: day 13, M-17 5×10^9 CFU/ml, metronidazole 40 mg/kg
Protocol: as §1, §2

IL-10 = experiment: Colonic cytokine ELISA in DSS colitis: IL-10; type: in vivo, C57BL/6 mice; conditions: day 13, M-17 5×10^9 CFU/ml, metronidazole 40 mg/kg
Protocol: as §1, §2

[3] = after single, intravenous infusion; cited from earlier work
TNF-α, IL-1β and IL-6 = experiment: RAW 264.7 macrophages: cytokine secretion, cytokines not told apart; type: cell-based, mouse; conditions: metronidazole 50 μg/ml; heat-killed M-17 1×10^8 CFU/ml; conditioned media 10% (v/v)
Protocol: The RAW 264.7 mouse macrophage cell line was obtained from American Type Culture Collection (ATCC). RAW 264.7 cells were grown in Dulbecco's Modified Eagle's Medium (DMEM) containing 10% FBS (Fetal Bovine Serum). The lipopolysaccharide (LPS) stimulation studies were conducted at a cell density of 2×10^6/ml. […] For the NF-κB p65 measurement, nuclear extracts were obtained from cells either immediately (0 hours) or 3 hours after LPS-stimulation. A protein determination of the nuclear extracts was done with the Bio-Rad protein assay (Bio-Rad Laboratories). For the p65 analysis, 10 μg of protein was utilized per sample. The nuclear binding of p65 was measured with the TransAM™ NF-κB p65 assay kit, according to the manufacturer's instructions.
For the cytokine secretion experiments, after 0 or 4 hours of LPS exposure, the culture medium was collected for the measurement of cytokines (TNF-α, IL-1β and IL-6) by ELISA (Pierce-Endogen), according to the manufacturer's directions. […] The media was then collected and centrifuged at 10,000 RPM for 10 minutes. Next, the CM was passed through a 0.22 micron filter prior to use in cytokine secretion experiments. […] The pellet was then resuspended in a sufficient quantity of saline to achieve a final concentration of 1×10^8 CFU/ml. […] In some experiments, we also evaluated whether metronidazole ([…]) could inhibit cytokine secretion.

[4] = day 13, M-17 5×10^9 CFU/ml, metronidazole 40 mg/kg, DSS

Cc1ncc([N+](=O)[O-])n1CCO [metronidazole, 1-(beta-hydroxyethyl)-2-methyl-5-nitroimidazole]
MPO (colonic MPO): 4.3 ± 1.0 U/2.5 cm
inhibition of individual isolates [1]: did not inhibit
IFN-γ (IFN-γ): 56 ± 28 pg/2.5 cm
IL-12 (IL-12): 32 ± 2 pg/2.5 cm
zone of inhibition (E. coli ATCC 202226): No zone of inhibition
IL-6 (IL-6): 372 ± 75 pg/2.5 cm
Histology Score (0-40) [2]: 12.4 ± 0.9
reduction in mean DAI score compared with DSS-treated mice that received vehicle (DSS-induced colitis; day 13, M-17 5×10^9 CFU/ml, metronidazole 40 mg/kg): 47.4%
Colon length (DSS-induced colitis; [4]): 6.8±0.2 cm
Colon wt. (DSS-induced colitis; [4]): 70 ± 3 mg/2.5 cm
Colon length (DSS-induced colitis; day 13, M-17 5×10^9 CFU/ml, metronidazole 40 mg/kg, DSS, listed as Metro): 6.8 ± 0.2 cm
Modified DAI (0-4) (DSS-induced colitis; day 13, stool consistency and occult blood only, M-17 5×10^9 CFU/ml, metronidazole 40 mg/kg): 1.0 ± 0.2
DAI (table title: DAT Time Course Data) (DSS-induced colitis; study day 0, M-17 5×10^9 CFU/ml, metronidazole 40 mg/kg): 0 ± 0
DAI (table title: DAT Time Course Data) (DSS-induced colitis; study day 2, M-17 5×10^9 CFU/ml, metronidazole 40 mg/kg): 0 ± 0
DAI (table title: DAT Time Course Data) (DSS-induced colitis; study day 4, M-17 5×10^9 CFU/ml, metronidazole 40 mg/kg): 0.3 ± 0.2
DAI (table title: DAT Time Course Data) (DSS-induced colitis; study day 6, M-17 5×10^9 CFU/ml, metronidazole 40 mg/kg): 0.2 ± 0.1
DAI (table title: DAT Time Course Data) (DSS-induced colitis; study day 8, M-17 5×10^9 CFU/ml, metronidazole 40 mg/kg): 0.1 ± 0.1
DAI (table title: DAT Time Course Data) (DSS-induced colitis; study day 10, M-17 5×10^9 CFU/ml, metronidazole 40 mg/kg): 0.7 ± 0.2
DAI (table title: DAT Time Course Data) (DSS-induced colitis; study day 12, M-17 5×10^9 CFU/ml, metronidazole 40 mg/kg): 0.6 ± 0.2\
DAI (table title: DAT Time Course Data) (DSS-induced colitis; study day 13, M-17 5×10^9 CFU/ml, metronidazole 40 mg/kg): 1.0 ± 0.2\
mice with weight loss (DSS-induced colitis; DSS-phase (days 7-13)): 30%
mice with weight loss (DSS-induced colitis; figures given before those of the DSS-phase): 50%
IL-1β (IL-1β): 359 ± 85 pg/2.5 cm
IL-10 (IL-10): 91 ± 7 pg/2.5 cm
half-life [3]: 7.3 ± 1.0 h
LPS-stimulated cytokine secretion (TNF-α, IL-1β and IL-6): did not reduce
